Source: the supplement of paper PMC5752671
Counter-ions that a name gives are not always drawn.

Tests used:
Assay in all cases: area under dose-response curve (cell viability) (AUC (arbitrary, % viability x log concentration)); higher = less sensitive (more viable)
Conditions in all cases: 4 days
[1] = test system: EOL-1
Method in brief: (§1)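 Fourteen leukemia cell lines were plated on extracellular-matrix-coated 384-well plates. Drugs were added robotically the next day at eight concentrations spanning 4–5 logs within 10^–12–10^–4 M, tailored per drug, in duplicate. Viability was read with CellTiter-Glo after 4 days. The value is the area under a four-parameter sigmoid fitted to the duplicate-averaged dose-response.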

[2] = test system: HL60
Method in brief: as §1

[3] = test system: KASUMI1
Method in brief: as §1

[4] = test system: KG1
Method in brief: as §1

[5] = test system: MOLM/13
Method in brief: as §1

[6] = test system: MV4.11
Method in brief: as §1

[7] = test system: NB4
Method in brief: as §1

[8] = test system: OCI-AML2
Method in brief: as §1

[9] = test system: THP-1
Method in brief: as §1

[10] = test system: U937
Method in brief: as §1

SMILES | area under dose-response curve [1] | area under dose-response curve [2] | area under dose-response curve [3] | area under dose-response curve [4] | area under dose-response curve [5] | area under dose-response curve [6] | area under dose-response curve [7] | area under dose-response curve [8] | area under dose-response curve [9] | area under dose-response curve [10]
CC[C@]1(O)C[C@@H]2CN(CCc3c([nH]c4ccccc34)[C@@](C(=O)OC)(c3cc4c(cc3OC)N(C)[C@H]3[C@@](O)(C(=O)OC)[C@H](OC(C)=O)[C@]5(CC)C=CCN6CC[C@]43[C@@H]65)C2)C1 [Vinblastine sulfate] | 7.37 | 50.7 | 59.3 | 74.8 | 6.96 | 4.8 | 34.3 | 5.01 | 20.9 | 4.36
CC[C@]1(O)C[C@H]2CN(CCc3c([nH]c4ccccc34)[C@@](C(=O)OC)(c3cc4c(cc3OC)N(C=O)[C@H]3[C@@](O)(C(=O)OC)[C@H](OC(C)=O)[C@]5(CC)C=CCN6CC[C@]43[C@@H]65)C2)C1 [Vincristine sulfate] | 7.29 | 52.9 | 78.2 | 246 | 6.74 | 5.09 | 241 | 5.4 | 25.4 | 4.64
CCC1=C[C@@H]2CN(C1)Cc1c([nH]c3ccccc13)[C@@](C(=O)OC)(c1cc3c(cc1OC)N(C)[C@H]1[C@@](O)(C(=O)OC)[C@H](OC(C)=O)[C@]4(CC)C=CCN5CC[C@]31[C@@H]54)C2 [Vinorelbine tartrate] | 216 | 295 | 303 | 373 | 298 | 315 | 117 | 328 | 315 | 136
O=C(CCCCCCC(=O)Nc1ccccc1)NO [Vorinostat] | 506 | 534 | 539 | 561 | 502 | 447 | 530 | 450 | 541 | 508
COCC[n+]1c2c(n(Cc3cnccn3)c1C)C(=O)c1ccccc1C2=O [YM-155] | 203 | 85.2 | 160 | 340 | 8.78 | 268 | 5.71 | 246 | 265 | 125
FC(F)c1nc2ccccc2n1-c1nc(N2CCOCC2)nc(N2CCOCC2)n1 [ZSTK-474] | 492 | 599 | 502 | 623 | 609 | 603 | 619 | 554 | 589 | 541
